From the NIST ThermoML archive (doi:10.1016/j.jct.2016.01.028)
Numbers after ± are expanded uncertainties.

Test: xn = mol fraction of the nth substance listed
Settings: 102 kPa, Liquid; for speed of sound: Frequency=5 MHz, Single path-length method; for mass density: Vibrating tube method

CCCCC(=O)[O-].C[NH2+]CCO [2-hydroxy-N-methylethanaminium pentanoate] + O
Settings | mass density [kg/m3] | speed of sound [m/s]
298.15 K, x1 = 0.0199 | 1013 ± 4 | 1645.3 ± 14
298.15 K, x1 = 0.05 | 1026 ± 4 | 1705.8 ± 14
298.15 K, x1 = 0.0988 | 1027.5 ± 4 | 1670.2 ± 14
298.15 K, x1 = 0.2023 | 1029.9 ± 4 | 1644.9 ± 14
298.15 K, x1 = 0.3 | 1028.5 ± 4 | 1633.5 ± 14
298.15 K, x1 = 0.4053 | 1025.2 ± 4 | 1609.2 ± 14
298.15 K, x1 = 0.5003 | 1021 ± 4 | 1583.7 ± 14
298.15 K, x1 = 0.5993 | 1019.1 ± 4 | 1571.3 ± 14
298.15 K, x1 = 0.8061 | 1013.3 ± 4 | 1541.8 ± 14
298.15 K, x1 = 1 | 1009.3 ± 4 | 1516.3 ± 14
303.15 K, x1 = 0.0199 | 1009.6 ± 4 | 1644.5 ± 14
303.15 K, x1 = 0.05 | 1022.7 ± 4 | 1698.6 ± 14
303.15 K, x1 = 0.0988 | 1024.2 ± 4 | 1659.8 ± 14
303.15 K, x1 = 0.2023 | 1026.8 ± 4 | 1631.5 ± 14
303.15 K, x1 = 0.3 | 1025.4 ± 4 | 1618.8 ± 14
303.15 K, x1 = 0.4053 | 1022.1 ± 4 | 1594.7 ± 14
303.15 K, x1 = 0.5003 | 1017.8 ± 4 | 1568.6 ± 14
303.15 K, x1 = 0.5993 | 1015.9 ± 4 | 1556.3 ± 14
303.15 K, x1 = 0.8061 | 1010.1 ± 4 | 1526.5 ± 14
303.15 K, x1 = 1 | 1006 ± 4 | 1503.7 ± 14
308.15 K, x1 = 0.0199 | 1006.1 ± 4 | 1643.7 ± 14
308.15 K, x1 = 0.05 | 1019.3 ± 4 | 1691.5 ± 14
308.15 K, x1 = 0.0988 | 1020.9 ± 4 | 1649.5 ± 14
308.15 K, x1 = 0.2023 | 1023.7 ± 4 | 1618.1 ± 14
308.15 K, x1 = 0.3 | 1022.3 ± 4 | 1604.2 ± 14
308.15 K, x1 = 0.4053 | 1018.9 ± 4 | 1580.2 ± 14
308.15 K, x1 = 0.5003 | 1014.6 ± 4 | 1553.5 ± 14
308.15 K, x1 = 0.5993 | 1012.7 ± 4 | 1541.4 ± 14
308.15 K, x1 = 0.8061 | 1006.9 ± 4 | 1511.2 ± 14
308.15 K, x1 = 1 | 1002.8 ± 4 | 1486.5 ± 14
313.15 K, x1 = 0.0199 | 1002.7 ± 4 | 1642.9 ± 14
313.15 K, x1 = 0.05 | 1015.9 ± 4 | 1684.3 ± 14
313.15 K, x1 = 0.0988 | 1017.7 ± 4 | 1639.1 ± 14
313.15 K, x1 = 0.2023 | 1020.7 ± 4 | 1604.8 ± 14
313.15 K, x1 = 0.3 | 1019.2 ± 4 | 1589.6 ± 14
313.15 K, x1 = 0.4053 | 1015.8 ± 4 | 1565.7 ± 14
313.15 K, x1 = 0.5003 | 1011.5 ± 4 | 1538.4 ± 14
313.15 K, x1 = 0.5993 | 1009.5 ± 4 | 1526.5 ± 14
313.15 K, x1 = 0.8061 | 1003.6 ± 4 | 1495.9 ± 14
313.15 K, x1 = 1 | 999.6 ± 4 | 1471 ± 14
318.15 K, x1 = 0.0199 | 999.3 ± 4 | 1642.2 ± 14
318.15 K, x1 = 0.05 | 1012.6 ± 4 | 1677.2 ± 14
318.15 K, x1 = 0.0988 | 1014.4 ± 4 | 1628.8 ± 14
318.15 K, x1 = 0.2023 | 1017.6 ± 4 | 1591.4 ± 14
318.15 K, x1 = 0.3 | 1016.1 ± 4 | 1575 ± 14
318.15 K, x1 = 0.4053 | 1012.7 ± 4 | 1551.2 ± 14
318.15 K, x1 = 0.5003 | 1008.3 ± 4 | 1523.3 ± 14
318.15 K, x1 = 0.5993 | 1006.3 ± 4 | 1511.5 ± 14
318.15 K, x1 = 0.8061 | 1000.4 ± 4 | 1480.6 ± 14
318.15 K, x1 = 1 | 996.3 ± 4 | 1457 ± 14
323.15 K, x1 = 0.0199 | 995.8 ± 4 | 1641.4 ± 14
323.15 K, x1 = 0.05 | 1009.2 ± 4 | 1670 ± 14
323.15 K, x1 = 0.0988 | 1011.1 ± 4 | 1618.5 ± 14
323.15 K, x1 = 0.2023 | 1014.6 ± 4 | 1578 ± 14
323.15 K, x1 = 0.3 | 1012.9 ± 4 | 1560.4 ± 14
323.15 K, x1 = 0.4053 | 1009.5 ± 4 | 1536.7 ± 14
323.15 K, x1 = 0.5003 | 1005.1 ± 4 | 1508.2 ± 14
323.15 K, x1 = 0.5993 | 1003.1 ± 4 | 1496.6 ± 14
323.15 K, x1 = 0.8061 | 997.2 ± 4 | 1465.3 ± 14
323.15 K, x1 = 1 | 993.1 ± 4 | 1440 ± 14
328.15 K, x1 = 0.0199 | 992.4 ± 4 | 1640.6 ± 14
328.15 K, x1 = 0.05 | 1005.9 ± 4 | 1662.8 ± 14
328.15 K, x1 = 0.0988 | 1007.8 ± 4 | 1608.1 ± 14
328.15 K, x1 = 0.2023 | 1011.5 ± 4 | 1564.6 ± 14
328.15 K, x1 = 0.3 | 1009.8 ± 4 | 1545.7 ± 14
328.15 K, x1 = 0.4053 | 1006.4 ± 4 | 1522.2 ± 14
328.15 K, x1 = 0.5003 | 1002 ± 4 | 1493.1 ± 14
328.15 K, x1 = 0.5993 | 999.9 ± 4 | 1481.7 ± 14
328.15 K, x1 = 0.8061 | 993.9 ± 4 | 1450 ± 14
328.15 K, x1 = 1 | 989.9 ± 4 | 1424.6 ± 14
333.15 K, x1 = 0.0199 | 988.9 ± 4 | 1639.8 ± 14
333.15 K, x1 = 0.05 | 1002.5 ± 4 | 1655.7 ± 14
333.15 K, x1 = 0.0988 | 1004.5 ± 4 | 1597.8 ± 14
333.15 K, x1 = 0.2023 | 1008.5 ± 4 | 1551.2 ± 14
333.15 K, x1 = 0.3 | 1006.7 ± 4 | 1531.1 ± 14
333.15 K, x1 = 0.4053 | 1003.2 ± 4 | 1507.7 ± 14
333.15 K, x1 = 0.5003 | 998.8 ± 4 | 1478.1 ± 14
333.15 K, x1 = 0.5993 | 996.7 ± 4 | 1466.7 ± 14
333.15 K, x1 = 0.8061 | 990.7 ± 4 | 1434.6 ± 14
333.15 K, x1 = 1 | 986.7 ± 4 | 1412.8 ± 14
